Read-outs that look alike come from different tables or passages of the source. Ends that are not written are not given here.
Columns and labels:
DRB1*0101 (DR1) = target: T1, DRB1*0101 (DR1) (Homo sapiens, UniProt P01903+P01911, A100R/D57E/F55L/F60I/F76Y/I96L/L162R/M171V/P40L/Q125E/R42F/V115G/Y59C); test: Class II peptide-binding assay, DR1;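 note: competition assay: unlabeled test peptides inhibit binding of a radiolabeled probe peptide to purified DR, with half-maximal inhibition taken as an approximate dissociation constant Kd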
T1 construct: used as sources of human HLA class II molecules; endogenous in cells; host or cells: LG2 (EBV-transformed homozygous B cell line)
Description: (§1) Class II peptide-binding assays. […] These assays were chosen as to be representative of the most common DR alleles.
Radiolabeled peptides were iodinated using the chloramine-T method. […] In appropriate stoichiometric conditions, the IC50 of an unlabeled test peptide to the purified DR is a reasonable approximation of the affinity of interaction (Kd). Peptides were tested in two to four completely independent experiments. […] Final detergent concentration in the incubation mixture was 0.05% Nonidet P-40. Assays were performed at pH 7.0 with the exception of DR3, which was performed at pH 4.5, and DRw53, which was performed at pH 5.0.
(§2) All subsequent inhibition and direct binding assays were the performed using these class II concentrations.

DRB5*0101 (DR2w2a) = target: T2, DRB5*0101 (DR2w2a) (Homo sapiens, UniProt P01903+Q30154); test: Class II peptide-binding assay, DR2w2a (DR2w2B2);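 note: competitive binding assay: unlabeled peptide inhibiting binding of a radiolabeled probe peptide to purified DR molecules at pH 7.0, IC50 approximating Kd, lower means stronger binding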
T2 construct: used as sources of human HLA class II molecules; endogenous in cells; host or cells: GM3107 (EBV-transformed homozygous B cell line)

DRB1*0301 (DR3w17) = target: T3, DRB1*0301 (DR3w17) (Homo sapiens, UniProt P01903+P01911, A100K/A102G/A103R/A169T/F55Y/I96L/K41T/L162R/M171V/P40S/Q125H/Q178H/Q39Y/R42S/S66N/T106N/T262R/W38E/Y61H); test: Class II peptide-binding assay, DR3 (pH 4.5);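 note: unlabeled peptide competing with a radiolabeled probe peptide for binding to affinity-purified HLA-DR3, IC50 regarded as an approximation of Kd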
T3 construct: used as sources of human HLA class II molecules; endogenous in cells; host or cells: MAT (EBV-transformed homozygous B cell line)
T3 sequence (P01903 26-254, other chains not shown): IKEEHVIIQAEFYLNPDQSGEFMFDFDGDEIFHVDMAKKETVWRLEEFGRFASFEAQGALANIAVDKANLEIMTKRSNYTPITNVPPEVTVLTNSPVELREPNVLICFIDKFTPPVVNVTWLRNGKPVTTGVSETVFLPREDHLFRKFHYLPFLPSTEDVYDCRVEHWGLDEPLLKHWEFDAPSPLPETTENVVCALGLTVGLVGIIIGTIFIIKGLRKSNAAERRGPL
Description: as §1
In appropriate stoichiometric conditions, the IC50 of an unlabeled test peptide to the purified DR is a reasonable approximation of the affinity of interaction (Kd). Peptides were tested in two to four completely independent experiments. […] Final detergent concentration in the incubation mixture was 0.05% Nonidet P-40. Assays were performed at pH 7.0 with the exception of DR3, which was performed at pH 4.5, and DRw53, which was performed at pH 5.0.
as §2

DRB1*0401 (DR4w4) = target: T4, DRB1*0401 (DR4w4) (Homo sapiens, UniProt P01903+P01911, A100K/A169T/F76Y/I96L/K127E/L162R/M171V/N62H/P40V/Q125Y/R42H/S133A/S149N/S66Y/V115G/V209L/W38E); test: Class II peptide-binding assay, DR4w4;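 note: unlabeled test peptides compete with a radiolabeled probe peptide for binding to affinity-purified HLA-DR, with DR amount titrated to capture a small fraction of label, IC50 approximating Kd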
T4 construct: used as sources of human HLA class II molecules; endogenous in cells; host or cells: PREISS (EBV-transformed homozygous B cell line)

DRB10404 (DR4w14) = target: T5, DRB10404 (DR4w14) (Homo sapiens, UniProt P01903+P01911, A100R/A169T/F76Y/I96L/K127E/L162R/M171V/N62H/P40V/Q125Y/R42H/S133A/S149N/S66Y/V209L/W38E); test: Class II peptide-binding assay, DR4w14;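 note: unlabeled peptides compete with a radiolabeled probe for binding to affinity-purified HLA-DR, neutral pH, class II amount titrated to bind a small fraction of label, IC50 approximates Kd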
T5 construct: used as sources of human HLA class II molecules; endogenous in cells; host or cells: BIN40 (EBV-transformed homozygous B cell line)

DRB1*1101 (DR5w11) = target: T6, DRB1*1101 (DR5w11) (Homo sapiens, UniProt P01903+P01911, A100R/A169T/A87E/I96F/K41T/L162R/M171V/P40S/Q125H/Q178H/Q39Y/Q99D/R42S/S66Y/T262R/V115G/W38E); test: Class II peptide-binding assay, DR5w11;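 note: competition by unlabeled test peptide against iodinated probe peptide binding to affinity-purified HLA-DR, class II amount titrated beforehand, half-maximal inhibitory concentration read as approximate Kd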
T6 construct: used as sources of human HLA class II molecules; endogenous in cells; host or cells: SWEIG (EBV-transformed homozygous B cell line)
T6 sequence (P01903 26-254, other chains not shown): as above

DRB1*0701 (DR7) = DRB1*0701 (DR7) (Homo sapiens, UniProt P01903+P01911, A100R/A102G/A103Q/D57E/D86V/E43K/F76Y/K127E/L162R/M171V/P40G/Q125H/Q99D/R33Q/R42Y/R54Q/S133A/S66F/T210M/V115G/Y107V/Y59L/Y89S); test: Class II peptide-binding assay, DR7;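 note: unlabeled peptides compete with an iodinated probe peptide for binding to affinity-purified HLA-DR at neutral pH, DR amount titered to bind a small tracer fraction, IC50 approximating Kd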
[1] = read-out: In IC50 Format DR1, Table VIII
[2] = read-out: In IC50 Format DR2w2β2, Table VIII
[3] = read-out: In IC50 Format DR3, Table VIII
[4] = read-out: In IC50 Format DR4w4, Table VIII
[5] = read-out: In IC50 Format DR4w14, Table VIII
[6] = read-out: In IC50 Format DR5w11, Table VIII
[7] = read-out: In IC50 Format DR7, Table VIII
[8] = read-out: DR1 nM (In IC50 Format), purified HLA DR1
[9] = read-out: DR2w2B2 nM (In IC50 Format), purified HLA DR2w2β2
[10] = read-out: DR3 nM (In IC50 Format), purified HLA DR3
[11] = read-out: DR4w4 nM (In IC50 Format), purified HLA DR4w4
[12] = read-out: DR4w14 nM (In IC50 Format), purified HLA DR4w14
[13] = read-out: DR5w11 nM (In IC50 Format), purified HLA DR5w11
[14] = read-out: DR7 nM (In IC50 Format), purified HLA DR7

KYLEFISEAIIHVLHSR [Peptide 508.01] showed an IC50 (DRB1*0101 (DR1); [1]) of 294 nM, an IC50 (DRB5*0101 (DR2w2a); [2]) of 20000 nM and an IC50 (DRB1*0301 (DR3w17); [3]) of 25000 nM. The IC50 (DRB1*0401 (DR4w4); [4]) was 136 nM, the IC50 (DRB10404 (DR4w14); [5]) was 2500 nM and the IC50 (DRB1*1101 (DR5w11); [6]) was 4000 nM. It also gave an IC50 (DRB1*0701 (DR7); [7]) of 338 nM.

Substance LLVIVELIPSTSS [Peptide 778.00] has an IC50 (DRB1*0101 (DR1); [8]) of 67.6 nM, an IC50 (DRB5*0101 (DR2w2a); [9]) of 2220 nM and an IC50 (DRB1*0301 (DR3w17); [10]) of 60000 nM. The IC50 (DRB1*0401 (DR4w4); [11]) was 28.1 nM, the IC50 (DRB10404 (DR4w14); [12]) was 82.5 nM and the IC50 (DRB1*1101 (DR5w11); [13]) was 1110 nM. For the same substance, the IC50 (DRB1*0701 (DR7); [14]) was 5000 nM.

In the case of LSGSHLVEALYLVSGERGFF [Peptide 734.02], the IC50 (DRB1*0101 (DR1); [8]) is reported as 14.4 nM, the IC50 (DRB5*0101 (DR2w2a); [9]) is reported as 2860 nM and the IC50 (DRB1*0301 (DR3w17); [10]) is reported as 30000 nM. For the same substance, the IC50 (DRB1*0401 (DR4w4); [11]) was 865 nM, the IC50 (DRB10404 (DR4w14); [12]) was 1020 nM and the IC50 (DRB1*1101 (DR5w11); [13]) was 10000 nM. For the same substance, the IC50 (DRB1*0701 (DR7); [14]) was 124 nM.

Substance LVEALYLVSGERGFFYTPKT [Peptide 734.03] has an IC50 (DRB1*0101 (DR1); [8]) of 39.7 nM, an IC50 (DRB5*0101 (DR2w2a); [9]) of 1820 nM and an IC50 (DRB1*0301 (DR3w17); [10]) of 1570 nM. The IC50 (DRB1*0401 (DR4w4); [11]) was 1150 nM, the IC50 (DRB10404 (DR4w14); [12]) was 704 nM and the IC50 (DRB1*1101 (DR5w11); [13]) was 2500 nM. It also gave an IC50 (DRB1*0701 (DR7); [14]) of 926 nM.

Substance LVHSSNNFGAILSSTNVGS [Peptide 735.04] has an IC50 (DRB1*0101 (DR1); [8]) of 161 nM, an IC50 (DRB5*0101 (DR2w2a); [9]) of 5000 nM and an IC50 (DRB1*0301 (DR3w17); [10]) of 15800 nM. It also gave an IC50 (DRB1*0401 (DR4w4); [11]) of 11 nM, an IC50 (DRB10404 (DR4w14); [12]) of 12.5 nM and an IC50 (DRB1*1101 (DR5w11); [13]) of 1250 nM. It also gave an IC50 (DRB1*0701 (DR7); [14]) of 961 nM.

NPVVHFFKNIVTPRTPPPS [Peptide 765.09] showed an IC50 (DRB1*0101 (DR1); [8]) of 13.5 nM, an IC50 (DRB5*0101 (DR2w2a); [9]) of 158 nM and an IC50 (DRB1*0301 (DR3w17); [10]) of 50000 nM. It also gave an IC50 (DRB1*0401 (DR4w4); [11]) of 7.4 nM, an IC50 (DRB10404 (DR4w14); [12]) of 35.7 nM and an IC50 (DRB1*1101 (DR5w11); [13]) of 18.7 nM. It also gave an IC50 (DRB1*0701 (DR7); [14]) of 66.8 nM.

For RLANSLVHSSNNFGAILSS [Peptide 735.03], the IC50 (DRB1*0101 (DR1); [8]) was 84.7 nM, the IC50 (DRB5*0101 (DR2w2a); [9]) was 10000 nM and the IC50 (DRB1*0301 (DR3w17); [10]) was 25000 nM. For the same substance, the IC50 (DRB1*0401 (DR4w4); [11]) was 11 nM, the IC50 (DRB10404 (DR4w14); [12]) was 12.8 nM and the IC50 (DRB1*1101 (DR5w11); [13]) was 202 nM. The IC50 (DRB1*0701 (DR7); [14]) was 556 nM.

TSATQRLANSLVHSSNNFG [Peptide 735.02] showed an IC50 (DRB1*0101 (DR1); [8]) of 111 nM, an IC50 (DRB5*0101 (DR2w2a); [9]) of 10000 nM and an IC50 (DRB1*0301 (DR3w17); [10]) of 33300 nM. The IC50 (DRB1*0401 (DR4w4); [11]) was 5.4 nM, the IC50 (DRB10404 (DR4w14); [12]) was 13.2 nM and the IC50 (DRB1*1101 (DR5w11); [13]) was 130 nM. The IC50 (DRB1*0701 (DR7); [14]) was 373 nM.

VHHANENIFYCPIAIMSALA [Peptide 703.03] showed an IC50 (DRB1*0101 (DR1); [1]) of 147 nM, an IC50 (DRB5*0101 (DR2w2a); [2]) of over 10000 nM and an IC50 (DRB1*0301 (DR3w17); [3]) of 42900 nM. For the same substance, the IC50 (DRB1*0401 (DR4w4); [4]) was 63.3 nM, the IC50 (DRB10404 (DR4w14); [5]) was 333 nM and the IC50 (DRB1*1101 (DR5w11); [6]) was 1110 nM. For the same substance, the IC50 (DRB1*0701 (DR7); [7]) was over 6250 nM.

Substance YAAYVKLTAARKFA-NH2 [Peptide 806.03] has an IC50 (DRB1*0101 (DR1); [8]) of 2.1 nM, an IC50 (DRB5*0101 (DR2w2a); [9]) of 0.7 nM and an IC50 (DRB1*0301 (DR3w17); [10]) of 23100 nM. It also gave an IC50 (DRB1*0401 (DR4w4); [11]) of 21.4 nM, an IC50 (DRB10404 (DR4w14); [12]) of 4550 nM and an IC50 (DRB1*1101 (DR5w11); [13]) of 1.3 nM. The IC50 (DRB1*0701 (DR7); [14]) was 4.4 nM.

For YASFVSQTAQRLFY-NH2 [Peptide 717.03], the IC50 (DRB1*0101 (DR1); [8]) was 1.9 nM, the IC50 (DRB5*0101 (DR2w2a); [9]) was 8 nM and the IC50 (DRB1*0301 (DR3w17); [10]) was 15800 nM. It also gave an IC50 (DRB1*0401 (DR4w4); [11]) of 11 nM, an IC50 (DRB10404 (DR4w14); [12]) of 6250 nM and an IC50 (DRB1*1101 (DR5w11); [13]) of 2500 nM. The IC50 (DRB1*0701 (DR7); [14]) was 25 nM.
